The record followed here is US11820762B2, “Compounds as potential therapeutic agents targeting various neurodegenerative diseases” (The Hong Kong University of Science and Technology, priority 2020, dated 2023).

“Also recorded” adds a separate entry of the source.

One series concerns red blood cells. Briefly: Hemolysis assay. In kind it is cell-based. The note with it: 250, 500, 1000 μg/mL; 2% rabbit red blood cells; 37° C., 1 hour. The method, then: Hemolytic activity was determined with 2% fresh red blood cells from a healthy rabbit. Blood cells were obtained and washed with PBS buffer four to five times and centrifuged at 1500 rpm for 10 mins until the upper phase became clear. Compounds were diluted with PBS to final concentrations of 1000, 500, 250 μg/mL, added to the same volume of 2% red blood cells and incubated at 37° C. for 1 hour. Samples were centrifuged at 10,000 rpm for 5 mins, and supernatants were added into 96-well plates and measured at 570 nm with a Thermo Scientific Multiskan FC multiplate photometer (Thermo Scientific™, USA). An aliquot of 10% Triton X-100 was used as the positive control, and 1% DMSO dissolved in PBS was used as the negative control.

Series [1] deals with differentiated HT22 cells. Briefly: cells. In kind it is cell-based. To be noted: for EC50: Mus musculus, HT-22, differentiated HT22 cells pre-treated with 5 mM L-glutamate, cell viability; for neuroprotective activity compared with cA: comparison of analogs. Here is the method: Cytotoxicity of compounds was tested by MTT assay. Cells were grown in DMEM (Gibco) with 10% FBS and 1% penicillin-streptomycin at 37° C. with 5% CO2. In total, 5×10^3 cells were seeded in each well of 96-well plates and cultured for 24 hours. Then cells were treated with different concentrations of compounds dissolved in DMSO for another 24 hours. After incubating with 20 μl of MTT (5 mg/mL) for each well at 37° C. for another four hours, 100 μl of DMSO was added to dissolve formazan. Absorbance was measured using a Multiskan™ FC microplate photometer at 570 nm. IC50 data were analyzed with GraphPad Prism software.
Cultured HT22 cells were differentiated by applying 10 μM retinoic acid (Sigma-Aldrich, R2625-50MG) and 500 μM cAMP (Sigma-Aldrich, A6885) in DEME medium supplied with 0.5% FBS (differentiation medium) and incubated 48 hours before adding other treatments. 5 mM L-glutamate acid was applied to the original differentiation medium for further 24-hours incubation. Cell viability was measured by MTT assay described above.
In the C9orf72 associated ALS/FTD, the G4C2 HRE make motor neurons more vulnerable to aberrant neuron excitation^43. Meanwhile, the hyperactivation of glutamate receptors drives a toxic level of neuronal activity, promoting the non-ATG (RAN) translation of G4C2 repeat-associated DPR proteins^44, leading to further toxicity of motor neurons. Thus, we would like to test our compounds in a glutamate (E)-induced excitotoxicity cell model.

A further series concerns the target T1, Tau-R3 (Homo sapiens, UniProt P10636).
T1 construct: Tau-R3 protein was synthesized and purchased from ChinaPeptides Co., Ltd; purchased ChinaPeptides Co., Ltd; host or cells: chemical synthesis
Kind of series: Thioflavin T (ThT) fluorescent tau-R3 aggregation assay. In kind it is biochemical. The note with it: 20 μM Tau-R3, 10 μM heparin, read-out: IC50 of Tau-R3 aggregation inhibition (converted). The method, then: Tau-R3 protein was synthesized and purchased from ChinaPeptides Co., Ltd. ThT (ab120751, 1 mM) solution was freshly prepared in 50 mM Tris-HCl buffer (pH 7.4) and passed through a 0.45 μm pore size filter to remove insoluble particles before use. Tau-R3 (20 μM) was incubated with 20 μM ThT and 10 μM heparin in the presence or absence of cA, cB and cC. Samples in 200 μL were added to 96-well plates and incubated at 37° C. for 24-48 hours. ThT fluorescence intensity was recorded using a microplate reader with 440/480 nm excitation/emission filters at different time points. Non-linear regression analysis was performed to fit the boltzmann sigmoidal.
In the C9orf72 ALS/FTD, there is a strong genetic association between the microtubule-binding protein, tau and the G4C2 HRE. […] The co-expression of Tau and G4C2 repeats produces a synergistic deterioration of the neurodegeneration phenotype of ALS/FTD^46. Considering the tight correlation of Tau aggregation with the ALS/FTD pathogenesis, we tested our compounds in a non-cell-based Tau-R3 aggregation inhibition assay. […] Moreover, we conducted high magnification TEM imaging to characterize the morphological changes of Tau-R3 fibrils with cA, cB and cC treatments. […] Furthermore, the misfolding of tau protein into filaments in neurons of the central nervous system can be found in various neurodegenerative diseases, such as Alzheimer's disease et al. Therefore, the inhibition on tau aggregation represented a potential of cA and its derivatives in targeting multiple other neurodegenerative diseases more than ALS.

Series [2] has as its system GMR-GAL4-(G4C2)29 Drosophila. Kind of series: Drosophila feeding and external eye assay. To be noted: 100 μM in solid food during larval stage; day 7 after eclosion. It is filed as in vivo. Here is the method: A fly line expressing 29 GGGGCC repeats (29R) (SEQ ID NO: 6), under the GMR-GAL4 promoter (GMR-GAL4-(G4C2)29 (SEQ ID NO: 6)), was used. Both GMR-GAL4-(G4C2)29 (SEQ ID NO: 6) and WT flies were raised at room temperature (25° C.) on a cornmeal medium supplemented with dry yeast. […] Parent flies for cross were set in solid food containing testing compound, and F1 larvae were thus fed with food continuously until eclosion. After eclosion, F1 flies were transferred to normal food containers without compounds.
Eye images of GMR-GAL4-(G4C2)29 (SEQ ID NO: 6) or WT adult flies at day 7 after eclosion were captured using a CCD camera on an Olympus stereomicroscope. Eye morphologies of flies in different treatment groups were compared to evaluate the retina degeneration level. The affected eye area and total eye area were measured to calculate the degeneration ratio by ImageJ.
We next treated WT Drosophila and Drosophila with GMR-GAL4 driver promoted expression of (G4C2)29-repeats (SEQ ID NO: 6) (GMR-GAL4-(G4C2)29) (SEQ ID NO: 6) with cA or cC by feeding larvae with compounds in solid food. DMSO was used as a negative control. The eyes of day 7 adult Drosophila with GMR-GAL4-(G4C2)29 (SEQ ID NO: 6) were much rougher than the same age WT fly, indicating eye degeneration (FIG. 8E). The affected eye degeneration area accounted for over 50% of the whole eye (FIG. 8F).

T1 sequence (P10636 623-653 limits assumed): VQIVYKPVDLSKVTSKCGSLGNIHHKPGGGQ

Take `COc1c2c(c(O)c3c(=O)c4cccc(O[C@@H]5OC(C(=O)O)=C[C@H](O)[C@H]5O)c4oc13)-c1c(cc(CC(C)=O)c(C(=O)O)c1O)CC2` [cB, chrexanthomycin B]: the hemolytic activity entry with red blood cells is “significant hemolytic activity starting at 500 μg/ml; also recorded: significant hemolytic activity starting at 0.5 mg/ml”. In series [1], the “cytotoxicity (structure-activity summary)” value is listed as “potent cytotoxicity”, the EC50 was 11100 nM and the “neuroprotective activity compared with cA” value was “worse than cA”. The IC50 on Tau-R3 is 2050 nM.

As to `CC(=O)Cc1cc2c(c(O)c1C(=O)O)-c1c(c(O)c3oc4c(O[C@@H]5OC(C(=O)O)=C[C@H](O)[C@H]5O)cccc4c(=O)c3c1O)CC2` [cA, chrexanthomycin A], the eye degeneration phenotype result in series [2] is given as “significantly rescuing the eye degeneration phenotype”. Also, in the series on red blood cells, the hemolytic activity result was “no hemolytic activity even at the concentration of 1000 μg/ml; also recorded: no hemolytic activity with a pretty high concentration of 1 mg/ml”. In addition, in series [1], the EC50 was determined as 310 nM. For the same compound, at Tau-R3, the IC50 is ~518 nM.

`CC(=O)Cc1cc2c(c(O)c1C(=O)O)-c1c(c(O)c3oc4c(O[C@@H]5O[C@H](C(=O)O)[C@@H](O)[C@H](O)[C@H]5O)cccc4c(=O)c3c1O)CC2` [cC, chrexanthomycin C]: in series [2], the eye degeneration phenotype result is recorded as “significantly rescuing the eye degeneration phenotype”. In the series with red blood cells, the hemolytic activity entry is recorded as “no hemolytic activity even at the concentration of 1000 μg/ml; also recorded: no hemolytic activity with a pretty high concentration of 1 mg/ml”. The “neuroprotective activity compared with cA” value in series [1] was “better neuroprotective activity than cA”. For the same compound, on Tau-R3, the concentration for half-maximal inhibition (IC50) is 5760 nM.
